Experimental data as given in US10555961B2 (INDIANA UNIVERSITY RESEARCH AND TECHNOLOGY CORPORATION, priority 2015, dated 2020).

How the values were obtained:
Assay type in all cases: cell-based
[1] = system: variant of Klebsiella pneumonia that exhibits multi-drug resistance; conditions: multi-drug resistant Klebsiella pneumonia, FIG. 2
Experimental: (§1) Bacterial assays were performed using native gentamicin and the C-1, C-1a, C-2, and C-2a congeners of gentamicin.

UGAC stop codon = experiment: Stop codon readthrough (FIG. 7); conditions: 200 μg mL^−1 for 24 hours, relative to controls
Experimental: Native gentamicin and various congeners prepared as in Example 1 were tested to determine their effect on stop codon readthrough.
In order to determine the optimal concentrations of the aminoglycosides (tobramycin, amikacin, and gentamicin) to use in the mammalian translation system, increasing amounts of each aminoglycoside were added to a rabbit reticulocyte translation system while expressing the QX(N) (UGAC) construct. The effect of aminoglycosides on total protein synthesis was monitored by comparing the total amount of proteins synthesized in the presence and absence of various aminoglycosides. A range of aminoglycoside concentrations was then determined that allowed a maximal amount of termination suppression without inhibiting total protein synthesis more than two- to threefold. In vitro translation reactions were carried out using the TNT coupled transcription/translation system (Promega, Madison, Wis.). […] The gel was dried and subjected to Phosphorlmager analysis in order to quantitate the amount of truncated and full-length protein species. The percentage of readthrough was then calculated as the amount of full-length protein/(truncated+full-length species)×100%.

Bacillus subtilis = experiment: Bacterial assay, kill zones and growth inhibition zones; conditions: FIG. 2
Experimental: as §1

Klebsiella pneumonia = experiment: as above; conditions: FIG. 2
Experimental: as §1

Substance: C-1 gentamicin
- anti-bacterial activity (kill zones and growth inhibition zones) [1]: demonstrated anti-bacterial activity
- readthrough of the stop codon UGAC (UGAC stop codon): greater readthrough relative to controls
- anti-bacterial activity (kill zones and growth inhibition zones) (Bacillus subtilis): demonstrated anti-bacterial activity
- anti-bacterial activity (kill zones and growth inhibition zones) (Klebsiella pneumonia): demonstrated anti-bacterial activity

Substance: C-2 gentamicin
- anti-bacterial activity (kill zones and growth inhibition zones) [1]: demonstrated anti-bacterial activity
- readthrough of the stop codon UGAC (UGAC stop codon): greater readthrough relative to controls
- anti-bacterial activity (kill zones and growth inhibition zones) (Bacillus subtilis): demonstrated anti-bacterial activity
- anti-bacterial activity (kill zones and growth inhibition zones) (Klebsiella pneumonia): demonstrated anti-bacterial activity

Substance: C-2a gentamicin
- anti-bacterial activity (kill zones and growth inhibition zones) [1]: demonstrated anti-bacterial activity
- anti-bacterial activity (kill zones and growth inhibition zones) (Bacillus subtilis): demonstrated anti-bacterial activity
- anti-bacterial activity (kill zones and growth inhibition zones) (Klebsiella pneumonia): demonstrated anti-bacterial activity

Substance: C-1a gentamicin
- anti-bacterial activity (kill zones and growth inhibition zones) [1]: demonstrated anti-bacterial activity
- anti-bacterial activity (kill zones and growth inhibition zones) (Bacillus subtilis): demonstrated anti-bacterial activity
- anti-bacterial activity (kill zones and growth inhibition zones) (Klebsiella pneumonia): demonstrated anti-bacterial activity
